Among the data in US10377718B2, “Apelin receptor (APJ) agonists and uses thereof” (Research Triangle Institute, priority 2014, dated 2019) are EC50 values, retold here.

Bounds are passed on as bounds.

The first assay deals with T1, apelin receptor (APJ) (Homo sapiens, UniProt P35414).
T1 sequence (P35414 1-380): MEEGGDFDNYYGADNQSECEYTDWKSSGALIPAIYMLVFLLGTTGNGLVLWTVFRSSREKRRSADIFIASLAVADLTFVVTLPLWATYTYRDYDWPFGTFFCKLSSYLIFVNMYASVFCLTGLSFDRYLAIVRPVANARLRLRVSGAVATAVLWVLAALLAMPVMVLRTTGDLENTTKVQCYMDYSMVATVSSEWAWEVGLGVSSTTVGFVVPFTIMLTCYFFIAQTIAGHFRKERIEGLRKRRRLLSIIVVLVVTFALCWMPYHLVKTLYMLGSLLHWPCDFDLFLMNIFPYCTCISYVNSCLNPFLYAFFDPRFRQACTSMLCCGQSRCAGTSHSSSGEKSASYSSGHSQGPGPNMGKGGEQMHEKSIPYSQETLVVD
Briefly: in vitro apelin agonist activity (methods of Giddings et al., Apelin-13 as positive control). It counts as cell-based.
Settings: not given
The source says: The compounds above were studied for their in vitro activity as apelin agonists using the methods described by Giddings et al. Giddings et al., 2010 Int J High Thro Screen. 1:39-47, the contents of which are hereby incorporated by reference in its entirety.
What is called EC50 is the midpoint of the concentration-response curve. Consider `COc1cccc(OC)c1-c1cc(C(=O)N[C@H](C(=O)O)C2CCCCC2)nn1CC(C)C` [compound 169, (S)-2-Cyclohexyl-2-(5-(2,6-dimethoxyphenyl)-1-isobutyl-1H-pyrazole-3-carboxamido)acetic acid], for which the EC50 is under 10 µM.
Regarding `COc1cccc(OC)c1-c1cc(C(=O)N[C@@H](CC2CCCCC2)C(=O)O)nn1CC(C)C` [compound 204], the 50% effective concentration (EC50) was under 10 µM.

The assay is the same for the next values; noted with them: apelin agonist activity, Giddings et al. method; read-out: agonist activity (EC50).
For `CCCCCCNC(=O)C[C@H](CC(C)C)NC(=O)c1cc(-c2c(OC)cccc2OC)n(CC(C)C)n1` [compound 154, (S)-5-(2,6-Dimethoxyphenyl)-N-(1-(hexylamino)-5-methyl-1-oxohexan-3-yl)-1-isobutyl-1H-pyrazole-3-carboxamide], the EC50 was under 10 µM.
Consider `COc1cccc(OC)c1-c1cc(C(=O)N[C@H](CC(=O)NCC2CCCCC2)CC(C)C)nn1CC(C)C` [compound 155, (S)—N-(1-((Cyclohexylmethyl)amino)-5-methyl-1-oxohexan-3-yl)-5-(2,6-dimethoxyphenyl)-1-isobutyl-1H-pyrazole-3-carboxamide], for which the EC50 is under 10 µM.
Consider `CCCCCNC(=O)C[C@H](CC(C)C)NC(=O)c1cc(-c2c(OC)cccc2OC)n(CC(C)C)n1` [compound 156, (S)-5-(2,6-Dimethoxyphenyl)-1-isobutyl-N-(5-methyl-1-oxo-1-(pentylamino)hexan-3-yl)-1H-pyrazole-3-carboxamide], for which the EC50 was under 10 µM.
On to `CCCNC(=O)C[C@H](CC(C)C)NC(=O)c1cc(-c2c(OC)cccc2OC)n(CC(C)C)n1` [compound 157, (S)-5-(2,6-dimethoxyphenyl)-1-isobutyl-N-(5-methyl-1-oxo-1-(propylamino)hexan-3-yl)-1H-pyrazole-3-carboxamide], for which the EC50 was under 10 µM.
Same read-out and setting: the value for `CCNC(=O)C[C@H](CC(C)C)NC(=O)c1cc(-c2c(OC)cccc2OC)n(CC(C)C)n1` [compound 161, (S)-5-(2,6-Dimethoxyphenyl)-N-(1-(ethylamino)-5-methyl-1-oxohexan-3-yl)-1-isobutyl-1H-pyrazole-3-carboxamide] was under 10 µM.
Still for that read-out and setting: the value for `COc1cccc(OC)c1-c1cc(C(=O)N[C@H](CC(=O)NC(C)C)CC(C)C)nn1CC(C)C` [compound 162] was under 10 µM; that for `COc1cccc(OC)c1-c1cc(C(=O)N[C@H](CC(=O)Nc2ccc(F)cc2)CC(C)C)nn1CC(C)C` [compound 163, (S)-5-(2,6-Dimethoxyphenyl)-N-(1-((4-fluorophenyl)amino)-5-methyl-1-oxohexan-3-yl)-1-isobutyl-1H-pyrazole-3-carboxamide] was under 10 µM.
For `COC(=O)C[C@H](CC(C)C)NC(=O)c1cc(-c2c(OC)cccc2OC)n(CC(C)C)n1` [compound 164], the EC50 was under 10 µM.
Regarding `COc1c(F)cc(F)c(OC)c1-c1cc(C(=O)N[C@H](CC(=O)O)CC(C)C)nn1CC(C)C` [compound 167], the EC50 is under 10 µM.
Take `CCCCNC(=O)C[C@H](CC(C)C)NC(=O)c1cc(-c2c(OC)c(F)cc(F)c2OC)n(CC(C)C)n1` [compound 168]: the EC50 was under 10 µM.
In the case of `CCCN(C)C(=O)C[C@H](CC(C)C)NC(=O)c1cc(-c2c(OC)cccc2OC)n(CC(C)C)n1` [compound 171], the EC50 was under 10 µM.
For `COc1cccc(OC)c1-c1cc(C(=O)N[C@H](CC(=O)NC2CC2)CC(C)C)nn1CC(C)C` [compound 172], the EC50 was under 10 µM.
On the same count and under the same terms, the value for `COc1cccc(OC)c1-c1cc(C(=O)N[C@H](CC(=O)NCC(=O)O)CC(C)C)nn1CC(C)C` [compound 174] was under 10 µM; that for `COc1cccc(OC)c1-c1cc(C(=O)N[C@H](CC(=O)NCC(N)=O)CC(C)C)nn1CC(C)C` [compound 175] was under 10 µM.
Regarding `CNC(=O)CNC(=O)C[C@H](CC(C)C)NC(=O)c1cc(-c2c(OC)cccc2OC)n(CC(C)C)n1` [compound 176], the EC50 was under 10 µM.
In the case of `COc1cccc(OC)c1-c1cc(C(=O)N[C@H](CC(=O)O)CC(C)C)nn1CC1CC1` [compound 181], the EC50 was under 10 µM.
As for `COc1cccc(OC)c1-c1cc(C(=O)N[C@H](CC(=O)O)CC(C)C)nn1C1CCCC1` [compound 182], the EC50 is under 10 µM.
As for `COC(=O)CNC(=O)C[C@H](CC(C)C)NC(=O)c1cc(-c2c(OC)cccc2OC)n(CC2CC2)n1` [compound 183], the EC50 is under 10 µM.
Take `COC(=O)CNC(=O)C[C@H](CC(C)C)NC(=O)c1cc(-c2c(OC)cccc2OC)n(C2CCCC2)n1` [compound 184]: the EC50 is under 10 µM.
The same measure, in the same setting: the value for `COc1cccc(OC)c1-c1cc(C(=O)N[C@H](CC(=O)NC2CCCC2)CC(C)C)nn1CC(C)C` [compound 185] was under 10 µM; that for `CCCn1nc(C(=O)N[C@H](CC(=O)NCC(=O)OC)CC(C)C)cc1-c1c(OC)cccc1OC` [compound 186] was under 10 µM.
`COC(=O)CNC(=O)C[C@H](CC(C)C)NC(=O)c1cc(-c2c(OC)cccc2OC)n(CC(C)(C)C)n1` [compound 187]: the EC50 is under 10 µM.
On the same count and under the same terms, the figure for `COC(=O)CNC(=O)[C@H](CC(C)C)NC(=O)c1cc(-c2c(OC)cccc2OC)n(CC(C)C)n1` [compound 188] is under 10 µM; for `COC(=O)CNC(=O)[C@H](CC(C)C)NC(=O)c1cc(-c2c(OC)cccc2OC)n(C2CCCCC2)n1` [compound 189] it is under 10 µM.
In the case of `CCOC(=O)CCNC(=O)[C@H](CC(C)C)NC(=O)c1cc(-c2c(OC)cccc2OC)n(CC(C)C)n1` [compound 191], the concentration giving a half-maximal response (EC50) is under 10 µM.
Consider `COC(=O)CNC(=O)[C@H](CC1CCCCC1)NC(=O)c1cc(-c2c(OC)cccc2OC)n(CC(C)C)n1` [compound 198], for which the 50% effective concentration (EC50) was under 10 µM.
Take `COC(=O)CNC(=O)[C@H](Cc1ccccc1)NC(=O)c1cc(-c2c(OC)cccc2OC)n(CC(C)C)n1` [compound 205]: the EC50 is under 10 µM.
Regarding `CCCC[C@H](NC(=O)c1cc(-c2c(OC)cccc2OC)n(CC(C)C)n1)C(=O)NCC(=O)OC` [compound 212], the EC50 is under 10 µM.
For the molecule `COC(=O)CNC(=O)[C@H](CC1CCCCC1)NC(=O)c1cc(-c2cc(OC)ccc2OC)n(CC(C)C)n1` [compound 217], the concentration giving a half-maximal response (EC50) was under 10 µM.
On to `COC(=O)CN(C)C(=O)C[C@H](CC(C)C)NC(=O)c1cc(-c2c(OC)cccc2OC)n(CC(C)C)n1` [compound 218], for which the EC50 was under 10 µM.
As for `COC(=O)CN(C)C(=O)[C@H](CC(C)C)NC(=O)c1cc(-c2c(OC)cccc2OC)n(CC(C)C)n1` [compound 219], the EC50 was under 10 µM.
As for `CCCNC(=O)[C@H](CCc1ccccc1)NC(=O)c1cc(-c2c(OC)cccc2OC)n(CC(C)C)n1` [compound 225], the EC50 is under 10 µM.
In the case of `COc1cccc(OC)c1-c1cc(C(=O)N[C@@H](CCc2ccccc2)C(=O)N2CCCC2)nn1CC(C)C` [compound 226], the EC50 was under 10 µM.
As to `COC(=O)CNC(=O)C[C@H](CC(C)C)N(C)C(=O)c1cc(-c2c(OC)cccc2OC)n(CC(C)C)n1` [compound 238], the concentration giving a half-maximal response (EC50) was under 10 µM.
On to `COC(=O)CNC(=O)C[C@H](CCCC1CCCCC1)NC(=O)c1cc(-c2c(OC)cccc2OC)n(CC(C)C)n1` [compound 242], for which the concentration giving a half-maximal response (EC50) was under 10 µM.
Take `CCC(O)CNC(=O)C[C@H](CCN1CCCCC1)NC(=O)c1cc(-c2c(OC)cccc2OC)n(CC(C)C)n1` (stereo partly shown) [compound 245]: the EC50 is under 10 µM.
Regarding `COc1cccc(OC)c1-c1cc(C(=O)N[C@@H](CCN2CCCCC2)CC(=O)NC2CCC2)nn1CC(C)C` [compound 247], the EC50 is under 10 µM.

Staying with this assay, now noted: mean based on three runs; read-out: mean activity (EC50).
On to `COC(=O)CNC(=O)[C@H](CC1CCCCC1)NC(=O)c1cc(-c2c(OC)cccc2OC)n(CC(C)C)n1` [compound 198], for which the 50% effective concentration (EC50) is 0.053 µM.
